What follows are compounds tested on M. tuberculosis (assay: BACTEC radiometric MIC test for bactericidal activity against M. tuberculosis). Conditions: Mycobacterium tuberculosis, read-out: minimum inhibitory concentration (MIC).
Format: cell-based
With CCCCCCCCCCN1C(=O)C(=O)c2cccc(-c3ccccc3)c21 [Example 13, 1-Decyl-7-phenyl-1-H-indole-2,3-dione] the MIC was no more than 20 µg/mL. With CCN(CCCCN1C(=O)C(=O)c2ccccc21)Cc1ccccc1 [Example 5, 1-(4-(N-Ethyl-N-phenylmethylamino)butyl)-1H-indole-2,3-dione] the MIC was no more than 20 µg/mL. CCN(CCCCCN1C(=O)C(=O)c2cc(C3CCCCC3)ccc21)Cc1ccccc1 [Example 3, 5-Cyclohexyl-1-(5-(N-ethyl-N-phenylmethylamino)pentyl)-1H-indole-2,3-dione] showed an MIC of no more than 20 µg/mL. Work on CCCCCCCCN1C(=O)C(=O)c2cccc(-c3ccccc3)c21 [Example 12, 1-Octyl-7-phenyl-1-H-indole-2,3-dione] yielded an MIC of no more than 20 µg/mL. CCCCCN1C(=O)C(=O)c2cccc(-c3ccccc3)c21 [Example 15, 1-Pentyl-7-phenyl-1H-indole-2,3-dione] gave an MIC of no more than 20 µg/mL. O=C1C(=O)N(CCN2CCN(Cc3ccccc3)CC2)c2ccc(N3CCCCC3)cc21 [Example 8, 5-(1-Piperidinyl)-1-[2-[4-(phenylmethyl)-1-piperazinyl]ethyl]-1H-indole-2,3-dione] gave an MIC of no more than 20 µg/mL. Work on CCCCN1C(=O)C(=O)c2cccc(-c3ccccc3)c21 [Example 16, 1-Butyl-7-phenyl-1H-inidole-2,3-dione] yielded an MIC of no more than 20 µg/mL. For CCCCCCN1C(=O)C(=O)c2cccc(-c3ccccc3)c21 [Example 18, 1-Hexyl-7-phenyl-1-indole-2,3-dione], the MIC was no more than 20 µg/mL. CCCCCCCN1C(=O)C(=O)c2cccc(-c3ccccc3)c21 [Example 11, 1-Heptyl-7-phenyl-1H-indole-2,3-dione] gave an MIC of no more than 20 µg/mL. Compound CCCCCCCCCCCCN1C(=O)C(=O)c2cccc(-c3ccccc3)c21 [Example 19, 1-Dodecyl-7-phenyl-1H-indole-2,3-dione] has an MIC of no more than 20 µg/mL. Work on CC(C)CN1C(=O)C(=O)c2cccc(-c3ccccc3)c21 [Example 17, 1-(2-Methylpropyl)-7-phenyl-1H-indole-2,3-dione] yielded an MIC of no more than 20 µg/mL. For O=C1Cc2cc(C3CCCCC3)ccc2N1CCC1CCN(Cc2ccccc2)CC1 [Example 4, 5-Cyclohexyl-1,3-dihydro-1-[2-[1-(phenylmethyl) 4-piperidinyl]ethyl]-2H-2H-indol-2-one], the MIC was no more than 20 µg/mL. O=C1C(=O)N(CCN2CCN(Cc3ccccc3)CC2)c2c1cccc2C1CCCCCC1 [Example 2, 7-Cycloheptyl-1-[2-[4-(phenylmethyl)-1-piperazinyl]ethyl]-1H-indole-2,3-dione] was tested, and the MIC was no more than 20 µg/mL. Compound O=C1C(=O)N(CCC2CCN(Cc3ccccc3)CC2)c2ccc(C3CCCCC3)cc21 [Example 1, 5-Cyclohexyl-1-[2-[1-(phenylmethyl)-4-piperidinyl]ethyl]-1H-indole-2,3-dione] has an MIC of no more than 20 µg/mL. In the case of O=C1C(=O)N(CCCCBr)c2ccc(C3CCCCC3)cc21 [Example 9, 1-(4-Bromobutyl)-5-cyclohexyl-1H-indole-2,3-dione], the MIC is reported as no more than 20 µg/mL. CCCCCCCCCN1C(=O)C(=O)c2cccc(-c3ccccc3)c21 [Example 10, 1-Nonyl-7-phenyl-1H-indole-2,3-dione] was tested, and the MIC was no more than 20 µg/mL. O=C1C(=O)N(CCN2CCN(Cc3ccccc3)CC2)c2ccc(-c3ccccc3)cc21 [Example 6, 5-Phenyl-1-[2-[4-(phenylmethyl)-1-perazinyl]ethyl]-1H-indole-2,3-dione] showed an MIC of no more than 20 µg/mL. O=C1C(=O)N(CCCCBr)c2c1cccc2-c1ccccc1 [Example 20, 1-(4-Bromobutyl)-7-phenyl-1H-indole-2,3-dione] gave an MIC of no more than 20 µg/mL. For CCCCCCCCCCCN1C(=O)C(=O)c2cccc(-c3ccccc3)c21 [Example 14, 1-Undececyl-7-phenyl-1-H-indole-2,3-dione], the MIC was no more than 20 µg/mL. Compound O=C1C(=O)N(CCN2CCN(Cc3ccccc3)CC2)c2c1cccc2C1CCCC1 [Example 7, 7-Cyclopentyl-1-[2-[4-(phenylmethyl)-1-piperazinyl]ethyl]-1H-indole-2,3-dione] has an MIC of no more than 20 µg/mL.

From US6906090B1, “Compositions and methods for treating mycobacterial diseases” (AstraZeneca AB, priority 1998, dated 2005)
